Here are results for 34 compounds from ChEMBL document CHEMBL1139163, “Discovery and initial SAR of 3-(1H-benzo[d]imidazol-2-yl)pyridin-2(1H)-ones as inhibitors of insulin-like growth factor 1-receptor (IGF-1R)” (Bioorg Med Chem Lett, 2007).

For one test, the system named is HT-29. Briefly: Cytotoxicity against HT29 cells by MTT assay. The format is functional, Homo sapiens. On the technique in general: Tetrazolium dyes change colour on reduction, which living cells bring about.
Test [1] deals with Insulin-like growth factor 1 receptor (Homo sapiens, UniProt P08069). Briefly: Inhibition of human recombinant IGF1 receptor.
Sequence of Insulin-like growth factor 1 receptor (P08069 31-736 limits assumed): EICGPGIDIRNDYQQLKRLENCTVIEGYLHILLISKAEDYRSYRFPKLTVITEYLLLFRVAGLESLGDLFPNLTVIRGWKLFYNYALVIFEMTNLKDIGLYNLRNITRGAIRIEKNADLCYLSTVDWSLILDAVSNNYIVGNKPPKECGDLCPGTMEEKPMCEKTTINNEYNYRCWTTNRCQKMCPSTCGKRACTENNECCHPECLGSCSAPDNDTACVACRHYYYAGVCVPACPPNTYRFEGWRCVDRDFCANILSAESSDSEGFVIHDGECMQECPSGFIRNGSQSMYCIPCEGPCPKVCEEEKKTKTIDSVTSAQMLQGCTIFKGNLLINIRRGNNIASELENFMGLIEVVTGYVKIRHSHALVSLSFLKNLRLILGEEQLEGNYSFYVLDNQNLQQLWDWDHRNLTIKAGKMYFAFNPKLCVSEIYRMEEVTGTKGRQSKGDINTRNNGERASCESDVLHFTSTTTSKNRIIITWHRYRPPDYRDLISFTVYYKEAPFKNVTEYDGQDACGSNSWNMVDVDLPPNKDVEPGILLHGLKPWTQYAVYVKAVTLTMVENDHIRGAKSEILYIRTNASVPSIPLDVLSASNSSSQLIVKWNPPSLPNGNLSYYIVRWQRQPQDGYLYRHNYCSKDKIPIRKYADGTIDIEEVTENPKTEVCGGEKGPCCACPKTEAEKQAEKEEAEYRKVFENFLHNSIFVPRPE
Sequence of Insulin-like growth factor 1 receptor (P08069 741-1367 limits assumed): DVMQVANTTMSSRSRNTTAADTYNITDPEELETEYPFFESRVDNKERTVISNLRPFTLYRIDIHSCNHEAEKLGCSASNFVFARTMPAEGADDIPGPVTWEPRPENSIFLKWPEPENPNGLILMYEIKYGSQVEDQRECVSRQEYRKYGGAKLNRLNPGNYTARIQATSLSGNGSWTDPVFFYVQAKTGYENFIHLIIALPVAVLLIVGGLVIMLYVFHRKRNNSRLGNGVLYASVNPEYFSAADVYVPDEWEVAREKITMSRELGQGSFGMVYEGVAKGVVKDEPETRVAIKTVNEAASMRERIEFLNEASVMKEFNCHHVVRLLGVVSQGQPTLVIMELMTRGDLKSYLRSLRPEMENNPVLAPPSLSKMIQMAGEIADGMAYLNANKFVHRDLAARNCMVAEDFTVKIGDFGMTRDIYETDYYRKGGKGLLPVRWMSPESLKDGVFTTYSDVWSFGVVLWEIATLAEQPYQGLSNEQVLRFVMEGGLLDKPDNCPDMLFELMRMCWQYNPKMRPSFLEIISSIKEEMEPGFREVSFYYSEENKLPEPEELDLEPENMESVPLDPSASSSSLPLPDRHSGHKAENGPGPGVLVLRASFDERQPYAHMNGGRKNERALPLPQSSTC

For `Cc1cc(-n2ccnc2)cc2[nH]c(-c3c(N[C@H](CO)Cc4ccccc4)cc[nH]c3=O)nc12`, the Activity in the test on HT-29 worked out at 0.78 µM. Besides, the IC50 (usually the point on the concentration scale where inhibition reaches its midpoint) in test [1] was 530 nM. For the compound `O=c1[nH]cccc1-c1nc2cc(-n3ccnc3)cc(CNCc3cccnc3)c2[nH]1`, the IC50 in test [1] is more than 25000 nM. Take `CN(Cc1cc(-n2ccnc2)cc2[nH]c(-c3ccc[nH]c3=O)nc12)c1ccccc1`: the IC50 in test [1] is more than 25000 nM. On the same count and under the same terms, to `Cc1cc(-n2ccnc2)cc2[nH]c(-c3c(N[C@H](CO)Cc4ccc(Cl)cc4)cc[nH]c3=O)nc12` belongs 5400 nM. `Cc1cc(-n2ccnc2)cc2[nH]c(-c3c(N[C@H](CO)Cc4cccc(Cl)c4)cc[nH]c3=O)nc12` came in with an Activity in the test with HT-29 of 1.1 µM. The IC50 in test [1] was determined as 730 nM. Taken in the same sequence, the figures for `COc1ccccc1C[C@@H](CO)Nc1cc[nH]c(=O)c1-c1nc2c(C)cc(-n3ccnc3)cc2[nH]1` were 1.2 µM and 570 nM.

As to `Cc1cc(-n2ccnc2)cc2[nH]c(-c3c(N[C@H](CO)Cc4ccccc4Br)cc[nH]c3=O)nc12`, the Activity in the test on HT-29 worked out at 0.83 µM. Also, in test [1], the IC50 was 290 nM. `Cc1cc(-n2ccnc2)cc2nc(-c3c(N[C@H](CO)Cc4ccccn4)cc[nH]c3=O)[nH]c12`: the IC50 in test [1] was 4800 nM. The same measure, in the same setting: for `COc1ccc(C[C@@H](CO)Nc2cc[nH]c(=O)c2-c2nc3c(C)cc(-n4ccnc4)cc3[nH]2)cc1` the value was 3100 nM; for `Cc1cc(-n2ccnc2)cc2[nH]c(-c3c(N[C@H](CO)Cc4ccccc4OC(F)(F)F)cc[nH]c3=O)nc12`, 1300 nM; for `Cc1cc(-n2ccnc2)cc2[nH]c(-c3c(SCc4ccccn4)cc[nH]c3=O)nc12`, more than 25000 nM. On the same count and under the same terms, to `Cc1cc(-n2ccnc2)cc2[nH]c(-c3c(NCc4ccncc4)cc[nH]c3=O)nc12` belongs more than 25000 nM; to `Cc1cc(-n2ccnc2)cc2[nH]c(-c3c(NCc4cccs4)cc[nH]c3=O)nc12`, 5300 nM; to `Cc1cc(-n2ccnc2)cc2[nH]c(-c3c(N[C@H](CO)Cc4ccc(OC(C)(C)C)cc4)cc[nH]c3=O)nc12`, 1700 nM.

With `Cc1cc(-n2ccnc2)cc2nc(-c3c(NCCn4nccn4)cc[nH]c3=O)[nH]c12`, the IC50 in test [1] is 2500 nM.

In the case of `NCc1cc(-n2ccnc2)cc2nc(-c3ccc[nH]c3=O)[nH]c12`, in test [1], the IC50 was more than 25000 nM. On the same count and under the same terms, to `CNCc1cc(-n2ccnc2)cc2nc(-c3ccc[nH]c3=O)[nH]c12` belongs more than 25000 nM. Same read-out and setting: to `CCN(Cc1cc(-n2ccnc2)cc2[nH]c(-c3ccc[nH]c3=O)nc12)c1ncc[nH]1` belongs 13000 nM; to `O=c1[nH]cccc1-c1nc2c(CNCc3ccccc3)cc(-n3ccnc3)cc2[nH]1`, more than 25000 nM.

In turn, `Cc1cc(-n2ccnc2)cc2[nH]c(-c3c(N[C@H](CO)Cc4cccc(Br)c4)cc[nH]c3=O)nc12` gave an Activity in the test with HT-29 of 1.3 µM. For the same compound, the IC50 in test [1] is 590 nM. For `Cc1cc(-n2ccnc2)cc2[nH]c(-c3c(N[C@H](CO)Cc4cccc(F)c4)cc[nH]c3=O)nc12` the same measures were 2.1 µM and 590 nM. For `Cc1cc(-n2ccnc2)cc2[nH]c(-c3c(N[C@H](CO)Cc4ccccc4Cl)cc[nH]c3=O)nc12`, the IC50 in test [1] came out at 860 nM. For the compound `Cc1ccccc1C[C@@H](CO)Nc1cc[nH]c(=O)c1-c1nc2c(C)cc(-n3ccnc3)cc2[nH]1`, in test [1], the IC50 is 530 nM.

Turning to `Cc1cc(-n2ccnc2)cc2nc(-c3c(NCc4cccnc4)cc[nH]c3=O)[nH]c12`, the IC50 in test [1] amounted to 14000 nM.

Turning to `Cc1cc(-n2ccnc2)cc2nc(-c3c(NCc4ccco4)cc[nH]c3=O)[nH]c12`, the IC50 in test [1] turned out to be 3000 nM.

Consider `Cc1cc(-n2ccnc2)cc2[nH]c(-c3c(N[C@H](CO)Cc4cccc([N+](=O)[O-])c4)cc[nH]c3=O)nc12`, for which the IC50 in test [1] was found to be 3300 nM. On the same count and under the same terms, for `O=c1[nH]cccc1-c1nc2c(CN3CCNCC3)cc(-n3ccnc3)cc2[nH]1` the value was more than 25000 nM; for `Cc1cc(-n2ccnc2)cc2[nH]c(-c3c(N[C@H](CO)Cc4ccc(F)cc4)cc[nH]c3=O)nc12`, 1400 nM.

Take `Cc1cc(-n2ccnc2)cc2nc(-c3c(NCc4ccccn4)cc[nH]c3=O)[nH]c12`: the Activity in the test with HT-29 worked out at 7.6 µM.

On to `Cc1cc(-n2ccnc2)cc2[nH]c(-c3c(N[C@H](CO)Cc4ccccc4C#N)cc[nH]c3=O)nc12`, for which the IC50 in test [1] was determined as 2200 nM. On to `Cc1cc(-n2ccnc2)cc2[nH]c(-c3c(OCc4ccccn4)cc[nH]c3=O)nc12`, for which the IC50 in test [1] was more than 25000 nM. In turn, `COc1cccc(C[C@@H](CO)Nc2cc[nH]c(=O)c2-c2nc3c(C)cc(-n4ccnc4)cc3[nH]2)c1` had an Activity in the test on HT-29 of 1.6 µM. Moreover, the IC50 in test [1] is 660 nM. As for `Cc1cc(-n2ccnc2)cc2[nH]c(-c3c(NCCc4cccs4)cc[nH]c3=O)nc12`, in test [1], the IC50 came to 2100 nM. Same read-out and setting: for `Cc1cc(-n2ccnc2)cc2[nH]c(-c3c(N[C@H](CO)Cc4cccc(C(F)(F)F)c4)cc[nH]c3=O)nc12` the value was 3500 nM.
